Assay results published in patent publication US4918062A, “Pharmaceutical compositions for the treatment of cerebral psycho-organic syndromes” (Riace Establishment, priority 1987, dated 1990).

What was measured:
learning and memory [1] = assay: pole-climbing test as described by Cook and Weindley (learning and memory); assay type: in vivo; conditions: male rats, 100 mg/kg i.p.
[2] = acute toxicity in rabbits; conditions: rabbit, in vivo
Description: (§1) As far as acute toxicity is concerned, the following data are obtained: […]

learning and memory [3] = assay: learning and memory tests in laboratory animals (summary statement); assay type: in vivo
Method: (§2) The GPE administered i.p. to 20 male mice at the dose of 100 mg/kg subjected to the electroshock test as described by Esseman in Pharmacol. Res. comm.

learning and memory [4] = assay: electroshock test as described by Esseman (learning and memory); assay type: in vivo; conditions: male mice, 100 mg/kg i.p.
Method: as §2

acute toxicity in rats = conditions: rat, in vivo
Description: as §1

acute toxicity in mice = conditions: mouse, in vivo
Description: as §1

[5] = tested on: senile cerebral alteration, of both involutive and cerebro-vascular insufficiency origin; assay: clinical tests in the treatment of senile cerebral alteration (overall clinical evaluation); assay type: in vivo, man
Method: 20 patients (10 male and 10 female) 59 to 76 years old were treated; the overall clinical evaluation, taking into account the improvement of the neurophysiological and neurological exams carried out, of the psychometric tests and of the used neurological scale (De Renzi E., Nichelli P.: Verbal and non-verbal short-term memory impairment following hemispheric damage, Cortex, 11, 341-354, 1975; Bisiach E. et. al.: Neurologia Clinica, Ricerche di psicologia, Ed. F. Angeli, Milano, 1977; Cafarra P. et al.: Neuropsychological testing during a transient global amnesia episode and its follow-up, Acta Neurol. Scand.

[6] = oral route, read-out: oral dose that did not cause either death or any symptomatology
[7] = case 1, cerebral vasculopathy with mental decline
[8] = overall clinical evaluation, 20 patients, 59 to 76 years old

NCCOP(=O)(O)OC[C@H](O)CO [GPE, L-α-glycerylphosphorylethanolamine]
ability to activate learning and memory in comparison to the untreated animals (learning and memory [1]): significantly shown the ability to activate learning and memory | LD50 ([2]; im, intramuscular route): > 1000 mg/kg | NOAEL [2, 6]: ≥ 3000 mg/kg | response to the learning and memory tests (learning and memory [3]): significantly improve the response to the learning and memory tests | ability to activate learning and memory in comparison to the untreated animals (learning and memory [4]): significantly shown the ability to activate learning and memory | LD50 (acute toxicity in rats; im, intramuscular route): > 1500 mg/kg | NOAEL (acute toxicity in rats; [6]): ≥ 3000 mg/kg | LD50 (acute toxicity in mice; im, intramuscular route): > 1500 mg/kg | NOAEL (acute toxicity in mice; [6]): ≥ 3000 mg/kg | tolerability (overall) ([5]; 20 patients, 59 to 76 years old): always excellent | Evaluation: Activity [5, 7]: good | Evaluation: Tolerability [5, 7]: very good | Evaluation: Activity ([5]; case 2, mental decline in cerebral vasculopathic): insufficient | Evaluation: Activity ([5]; case 3, cerebral vasculopathy with mental decline): very good | Evaluation: Activity ([5]; case 4, mental involution with serious cerebral atrophy): very good | Evaluation: Activity ([5]; case 5, Alzheimer disease): moderate | Evaluation: Activity ([5]; case 6, cerebral atrophy with extrapiramidal syndrome and decline): moderate | Evaluation: Activity ([5]; case 8, multifocal dementia): good | Evaluation: Activity ([5]; case 9, presenile Alzheimer disease): good | Evaluation: Activity ([5]; case 10, multifocal dementia with incipient cerebral): very good | Evaluation: Activity ([5]; case 11, cerebral vasculopathy with mental decline): very good | Evaluation: Activity ([5]; case 12, Alzheimer disease with cerebral atrophy): good | Evaluation: Activity ([5]; case 13, cerebral vasculopathy with mental decline): good | Evaluation: Activity ([5]; case 14, vasculopathy prevailing in the vertebro-basilar): moderate | Evaluation: Activity ([5]; case 15, cerebral vasculopathy with mental decline): moderate | Evaluation: Activity ([5]; case 16, Alzheimer disease): good | Evaluation: Activity ([5]; case 17, Alzheimer disease with initial cerebral atrophy): very good | Evaluation: Activity ([5]; case 18, Alzheimer disease): very good | Evaluation: Activity ([5]; case 19, cerebral vasculopathy with cerebral atrophy): good | Evaluation: Activity ([5]; case 20, multifocal dementia): good | influence on neurophysiological parameters, psychometric tests and neurologic scales ([5]; man): ability to influence in a likewise significant way the neurophysiological parameters, the psychometric tests and the used neurologic scales | cases with significantly positive therapeutic effect [5, 8]: 19 cases | treatments considered to be insufficient [5, 8]: only one | pharmacological activity in clinical tests ([5]; senile cerebral alteration and related symptomatology): confirmed in clinical tests
